According to patent US20250144067A1, “PERSONALIZED STARVATION THERAPY FOR CANCER” (Faeth Therapeutics, Inc., priority 2021, published 2025):
Where a name gives a salt, the structure may show the parent alone. Read-outs that look alike come from different tables or passages of the source.

What was measured:
[1] = system: NCI-H292 lung cancer cells; experiment: FDA drug screening, complete media vs cholesterol-free media with simvastatin (TABLE 2); assay type: cell-based, human
[2] = system: NCI-H292 lung cancer cells; experiment: FDA drug screening, complete media vs cholesterol-free media without statin (TABLE 1); assay type: cell-based, human
[3] = NCI-H292 cells, drug in cholesterol-free media with simvastatin 0.04 μM
[4] = NCI-H292 cells, drug in complete media
[5] = complete media vs cholesterol-free media + simvastatin (0.04 μM), >0 enhanced anti-cancer activity, about 0 neutral, <0 antagonist
[6] = Complete minus Cholesterol-free, greater than 0 enhanced anti-cancer activity, about 0 neutral, below 0 antagonist
[7] = NCI-H292 cells, FDA drug library screen, cholesterol-free media without statin
[8] = NCI-H292 cells, FDA drug library screen, complete media
[9] = NCI-H292 cells, cholesterol-free media with simvastatin 0.04 μM, FDA drug library screen (TABLE 2)
[10] = NCI-H292 cells, complete media, FDA drug library screen (TABLE 2)
[11] = complete media minus cholesterol-free media + simvastatin (0.04 μM), >0 enhanced anti-cancer activity, about 0 neutral, <0 antagonist
[12] = NCI-H292 cells, FDA drug library screen, cholesterol-free media with simvastatin 0.04 μM
[13] = complete media minus cholesterol-free media + simvastatin, >0 enhanced anti-cancer activity, about 0 neutral, <0 antagonist
[14] = NCI-H292 cells, cholesterol-free media without statin
[15] = NCI-H292 cells, cholesterol-free media without statin, FDA drug library screen
[16] = NCI-H292 cells, complete media, FDA drug library screen
[17] = complete vs cholesterol-free media, >0 enhanced anti-cancer activity, about 0 neutral, <0 antagonist
[18] = Complete minus Cholesterol-free, greater than 0 enhanced anti-cancer activity, about 0 neutral, below 0 antagonists
[19] = NCI-H292 cells in cholesterol-free media without statin
[20] = NCI-H292 cells in complete media
[21] = Complete minus Cholesterol-free, […]
[22] = Complete minus Cholesterol-free, >0 enhanced anti-cancer activity, about 0 neutral, <0 antagonist
[23] = NCI-H292 cells, FDA library drug in cholesterol-free media with simvastatin 0.04 μM
[24] = NCI-H292 cells, FDA library drug in complete media
[25] = complete media vs cholesterol-free media + simvastatin (0.04 μM), […]
[26] = NCI-H292 cells, cholesterol-free media with simvastatin 0.04 μM, […]
[27] = NCI-H292 cells, complete media, […]
[28] = complete media minus cholesterol-free media + simvastatin, […]

CC1(C)S[C@@H]2[C@H](NC(=O)[C@H](N)c3ccc(O)cc3)C(=O)N2[C@H]1C(=O)[O-].[Na+] [Amoxicillin (sodium)]
Cholesterol-free media + simvastatin (0.04 μM) [1, 3]: 0.9358
Complete Media [1, 4]: 0.759
Difference [1, 5]: −0.18
Difference [2, 6]: −0.16
Cholesterol-free [2, 7]: 0.8965
Complete [2, 8]: 0.7329

CCCC(=O)Nc1ncnc2c1ncn2[C@@H]1O[C@@H]2COP(=O)(O)O[C@H]2[C@H]1OC(=O)CCC [Bucladesine (calcium)]
Cholesterol-free media + simvastatin (0.04 μM) [1, 9]: 0.8302
Complete Media [1, 10]: 0.804
Difference [1, 11]: −0.03
Difference [2, 6]: −0.13
Cholesterol-free [2, 7]: 0.8949
Complete [2, 8]: 0.7629

O=C1CCc2cc(OCCCCc3nnnn3C3CCCCC3)ccc2N1 [Cilostazol]
Cholesterol-free media + simvastatin (0.04 μM) [1, 12]: 0.8234
Complete Media [1, 8]: 0.9809
Difference [1, 13]: 0.16
Cholesterol-free [2, 14]: 1.501
Difference ([2]; complete vs cholesterol-free media, greater than 0 enhanced anti-cancer activity, about 0 neutral, below 0 antagonists): −0.33

CCCCCCCCCC(=O)OCCN1CCN(CCCN2c3ccccc3Sc3ccc(C(F)(F)F)cc32)CC1 [Fluphenazine decanoate]
Cholesterol-free media + simvastatin (0.04 μM) [1, 12]: 0.7434
Complete Media [1, 8]: 0.9759
Difference [1, 13]: 0.23
Cholesterol-free [2, 15]: 0.4638
Complete [2, 16]: 1.069
Difference [2, 17]: 0.60

N#CC[C@H](C1CCCC1)n1cc(-c2ncnc3[nH]ccc23)cn1 [Ruxolitinib (S enantiomer)]
Cholesterol-free media + simvastatin (0.04 μM) [1, 3]: 0.9634
Complete Media [1, 4]: 0.7007
Difference [1, 5]: −0.26
Difference [2, 18]: −0.48
Cholesterol-free [2, 19]: 1.03
Complete [2, 20]: 0.5541

(−)-Huperzine A
Cholesterol-free media + simvastatin (0.04 μM) [1, 9]: 1.198
Complete Media [1, 10]: 1.208
Difference ([1]; complete media minus cholesterol-free media + simvastatin (0.04 μM), […]): 0.01
Difference [2, 21]: 0.00
Cholesterol-free [2, 15]: 1.621
Complete [2, 16]: 1.617

CC(C)(C)N.CCC[C@H](N[C@@H](C)C(=O)N1[C@H](C(=O)O)C[C@@H]2CCCC[C@@H]21)C(=O)OCC [Perindopril (erbumine)]
Cholesterol-free media + simvastatin (0.04 μM) [1, 12]: 0.9237
Complete Media [1, 8]: 0.7917
Difference [1, 5]: −0.13
Difference [2, 22]: −0.25
Cholesterol-free [2, 14]: 1.151
Complete ([2]; NCI-H292 cells, complete media): 0.8989

COC(=O)N[C@H](C(=O)N1CCC[C@H]1c1nc(-c2ccc(-c3ccc(-c4c[nH]c([C@@H]5CCCN5C(=O)[C@@H](NC(=O)OC)C(C)C)n4)cc3)cc2)c[nH]1)C(C)C [Daclatasvir (dihydrochloride)]
Cholesterol-free media + simvastatin (0.04 μM) [1, 23]: 1.149
Complete Media [1, 24]: 0.7215
Difference [1, 5]: −0.43
Difference [2, 22]: 0.02
Cholesterol-free [2, 15]: 1.025
Complete [2, 16]: 1.046

O=C1NC(=O)C(c2ccccc2)(c2ccccc2)N1 [Phenytoin]
Cholesterol-free media + simvastatin (0.04 μM) [1, 12]: 1.316
Complete Media [1, 8]: 1.23
Difference [1, 5]: −0.09
Cholesterol-free [2, 15]: 0.8044
Complete [2, 16]: 0.8965
Difference [2, 17]: 0.09

CCCCCCCCCCCC1=C(O)C(=O)C=C(O)C1=O [Embelin]
Cholesterol-free media + simvastatin (0.04 μM) [1, 9]: 0.8998
Complete Media [1, 10]: 0.8298
Difference [1, 11]: −0.07
Difference [2, 18]: −0.48
Cholesterol-free [2, 19]: 1.567
Complete [2, 20]: 1.082

CNC(=O)c1cnn(-c2nc(N)c3ncn([C@@H]4O[C@H](CO)[C@@H](O)[C@H]4O)c3n2)c1 [Regadenoson]
Cholesterol-free media + simvastatin (0.04 μM) [1, 23]: 1.362
Complete Media [1, 24]: 1.055
Difference [1, 25]: −0.31
Difference [2, 21]: −0.21
Cholesterol-free [2, 14]: 1.426
Complete ([2]; NCI-H292 cells, complete media): 1.216

Cc1ccccc1N1CCN(CCc2nnc3n2CCCC3)CC1 [Dapiprazole (hydrochloride)]
Cholesterol-free media + simvastatin (0.04 μM) [1, 23]: 1.337
Complete Media [1, 24]: 1.063
Difference [1, 5]: −0.27
Difference [2, 18]: −0.49
Cholesterol-free [2, 19]: 1.532
Complete [2, 20]: 1.043

CC1=C(C)C(=O)C(CCCCCCCCCC[P+](c2ccccc2)(c2ccccc2)c2ccccc2)=CC1=O.[Br-] [Visomitin]
Cholesterol-free media + simvastatin (0.04 μM) [1, 26]: 0.1378
Complete Media [1, 27]: 0.1554
Difference [1, 28]: 0.02
Difference [2, 21]: −0.06
Cholesterol-free [2, 15]: 0.06935
Complete [2, 16]: 0.01194

C1CCN2C[C@@H]3C[C@@H](CN4CCCC[C@@H]34)[C@H]2C1 [(−)-Sparteine]
Cholesterol-free media + simvastatin (0.04 μM) [1, 26]: 1.054
Complete Media [1, 27]: 1.106
Difference [1, 28]: 0.05
Difference [2, 21]: −0.60
Cholesterol-free [2, 19]: 1.432
Complete [2, 20]: 0.8366

O=C(O)CCc1nc(-c2ccccc2)c(-c2ccccc2)o1 [Oxaprozin]
Cholesterol-free media + simvastatin (0.04 μM) [1, 9]: 0.8941
Complete Media [1, 10]: 0.904
Difference [1, 11]: 0.01
Difference [2, 6]: −0.11
Cholesterol-free [2, 7]: 1.125
Complete [2, 8]: 1.011

Inulin
Cholesterol-free media + simvastatin (0.04 μM) [1, 3]: 1.179
Complete Media [1, 4]: 0.9318
Difference [1, 25]: −0.25
Difference [2, 21]: −0.02
Cholesterol-free [2, 15]: 0.9221
Complete [2, 16]: 0.9055

Cn1c(=O)cc(N2CCC[C@@H](N)C2)n(Cc2cc(F)ccc2C#N)c1=O [Trelagliptin]
Cholesterol-free media + simvastatin (0.04 μM) ([1]; NCI-H292 cells, cholesterol-free media with simvastatin 0.04 μM, cell growth value in FDA drug screen): 1.142
Complete Media ([1]; NCI-H292 cells, complete media, cell growth value in FDA drug screen): 1.234
Difference [1, 13]: 0.09
Difference [2, 22]: −0.22
Cholesterol-free [2, 14]: 0.9224
Complete ([2]; NCI-H292 cells, complete media): 0.705

CN1CCN2c3ccccc3Cc3ccccc3C2C1 (stereo not shown) [Mianserin (hydrochloride)]
Cholesterol-free media + simvastatin (0.04 μM) [1, 12]: 1.121
Complete Media [1, 8]: 1.021
Difference [1, 5]: −0.10
Cholesterol-free [2, 15]: 1.049
Difference [2, 17]: 0.13

CCOc1ccc(Cc2cc([C@]34OC[C@](CO)(O3)[C@@H](O)[C@H](O)[C@H]4O)ccc2Cl)cc1.O=C1CC[C@@H](C(=O)O)N1 [Ertugliflozin L-pyroglutamic acid]
Cholesterol-free media + simvastatin (0.04 μM) [1, 3]: 1.012
Complete Media [1, 4]: 0.8266
Difference [1, 25]: −0.19
Cholesterol-free [2, 15]: 1.319
Complete [2, 16]: 1.576
Difference ([2]; complete vs cholesterol-free media, […]): 0.26

O=c1[nH]ccc2c(S(=O)(=O)N3CCCNCC3)cccc12 [Hydroxyfasudil]
Cholesterol-free media + simvastatin (0.04 μM) [1]: 0.9404
Complete Media [1]: 0.8562
Difference [1]: −0.08
Cholesterol-free [2]: 0.944
Complete [2]: 1.011
Difference [2]: 0.07

C[C@H](O)C(=O)Nc1c(I)c(C(=O)NC(CO)CO)c(I)c(C(=O)NC(CO)CO)c1I [Iopamidol]
Cholesterol-free media + simvastatin (0.04 μM) [1, 23]: 1.516
Complete Media [1, 24]: 1.092
Difference [1, 5]: −0.42
Difference [2, 6]: −0.15
Cholesterol-free [2, 7]: 1.136
Complete [2, 8]: 0.9871

CCC(=O)NC[C@@H]1C[C@H]1c1cccc2c1CCO2 [Tasimelteon]
Cholesterol-free media + simvastatin (0.04 μM) [1, 9]: 0.9943
Complete Media [1, 10]: 0.9618
Difference [1, 11]: −0.03
Difference [2, 6]: −0.12
Cholesterol-free [2, 7]: 0.9406
Complete [2, 8]: 0.8228

C[C@@H]1O[C@@H](OC[C@H]2O[C@@H](Oc3c(-c4ccc(O)c(O)c4)oc4cc(O)cc(O)c4c3=O)[C@H](O)[C@@H](O)[C@@H]2O)[C@H](O)[C@H](O)[C@H]1O [Rutin]
Cholesterol-free media + simvastatin (0.04 μM) [1, 3]: 1.71
Complete Media [1, 4]: 1.488
Difference [1, 5]: −0.22
Cholesterol-free [2, 15]: 1.229
Complete [2, 16]: 1.309
Difference [2, 17]: 0.08
